Reference: patent US20060089408A1, “Method of treating blepharospasm with a prostaglandin derivative” (priority 2004, published 2006)
“And” between values parts separate entries of the source, which are not always exact repeats. Equal entries are not always repeated.

System: patients with blepharospasm
Test: Observational prospective case series of 21 consecutive patients with blepharospasm treated with Latanoprost
Format: in vivo, human
Description: It is the inventor's unique discovery that latanoprost improves some forms of blepharospasm. Over a period of three years starting from 2000, 21 patients with various forms of blepharospasm were treated with latanoprost. In more than 75% of the cases observed, the symptoms of blepharospasm were much improved ranging from mild resolution to complete improvement.
Observational prospective case series of 21 consecutive patients comprising mostly Asian descent with blepharospasm were treated with Latanoprost for a mean follow-up period of 1.5 years. Assessment of therapy was made by symptomatic evaluation and clinical examination. Severity of patient's initial symptoms ranged from myokimia to blepharospasm with facial dystonia.
The patients were pooled from the Los Angeles County metropolitan area and the Pacific Rim and all of the patients are of Chinese descent. The patients were excluded if they had secondary causes of blepharospasm such as light sensitivity, lid hygiene (blepharitis), dry eyes, and emotional or physical psychological stressors.
Therapeutic intervention involved administration of one drop of Latanoprost in the affected eye at night. Adverse effects were assessed by the patient's subjective feedback and physician's examination. Outcome assessment was determined mainly by subjective reporting by the patient.
Table 1 illustrates the physician's grading scale, wherein grade I signified blepharospasm isolated just to the eyes; Grade II described blepharospasm with some form of facial dystonia; and Grade III described blepharospasm with facial dystonia extending to the neck region
Table 2 illustrates patient's subjective evaluation of improvement that subjective opinion of improvement is on a scale ranging from 0 to 10, where zero indicated no improvement and 10 indicated complete resolution.
Table 3 illustrates demographics and clinical data of the patients involved in the above clinical study. In Table 3, F represent female, M represent male, duration represents duration of treatment, OU represents blepharospasm in both eyes, OD represents blepharospasm in right eye only, and OS represents blepharospasm in left eye. Date start illustrates the date starting treatment of prostaglandin derivatives, improvement illustrates the time required for first noticeable improvement, while scale imp represents scale of improvement according to the subjective evaluation grading as shown in Table 2.

Structure (SMILES): CC(C)OC(=O)CCC/C=C\C[C@@H]1[C@@H](CC[C@@H](O)CCc2ccccc2)[C@H](O)C[C@@H]1O [Latanoprost, isopropyl-(Z)-7[(1R,2R,3R,5S)3,5-dihydroxy-2-[(3R)-3-hydroxy-5-phenylpentyl]cyclopentyl]-5-heptenoate]
- patients who reported moderate to complete resolution of symptoms after treatment (21 consecutive patients, mean follow-up 1.5 years): over 75%
- cases in which symptoms of blepharospasm were much improved, ranging from mild resolution to complete improvement (21 patients with various forms of blepharospasm, three years starting from 2000): more than 75%
- change in spasm of eyelids and face (Case 1, 30 years history, right eye, 1.5 ug per day, after 3 weeks of treatment): considerable decrease in spasm of their eyelids and face
- patients who noted subjective improvement in their blepharospasm (after treatment, 21 patients): 19 of 21
- patients who reported no change (after treatment, 21 patients): 2 patients
- duration of treatment required before effects were seen (general statement on the series): approximately 2 months
- Improvement (time required for first noticeable improvement) (individual patient, one drop in the affected eye at night): 2 months (13×) and 1 months (6×)
- Scale imp (scale of improvement, patient's subjective evaluation grading) (individual patient, scale 0 to 10: 0 no improvement, 5 50% improvement, 10 complete resolution, one drop in the affected eye at night): 5 (6×) and 10 (2×) and 8 (6×) and 7 and 9 (3×) and 6 and 0 (2×)
- time at which noticeable improvements occurred after initiation of treatment (whole series of 21 patients): 1-2 months
- average amount of improvement (whole series, subjective scale 0 to 10): 6.95
